Bounds are passed on as bounds.

In general, IC50 refers to the point on the concentration scale where inhibition reaches its midpoint. What is called microsomal CLint is the capacity of the preparation to metabolise the compound, expressed as a volume cleared per time. A low value points to slow turnover.

One data set deals with MDR1, BCRP. The data set is described as follows: MDCKII-MDR1-BCRP efflux assay. In kind it is in vitro ADME. The conditions noted are these: dog, pH 7.4, 5 μM compound, HBSS pH 7.4, read-out: MDCK-Mdr1-BCRP efflux ratio. The method, then: The apical-to-basolateral (A-B) and basolateral-to-apical (B-A) transport of compound in HBSS (25 mM HEPES, pH 7.4) was measured across MDCKII-MDR1-BCRP cell monolayers. Incubations were performed at approximately 37° C. for 120 min, with functionality of the test system being confirmed using 5 μM digoxin as a positive control substrate. Transport of 5 μM compound and control compound were determined by quantifying substrate concentration in the incubation medium of donor compartment at the beginning of the incubation period, and both donor and receiver compartments at the end of the incubation period. The data was used to calculate the apparent permeability (Papp). All incubations were performed in triplicate and integrity of the cell monolayers was confirmed using the marker Lucifer yellow.
The permeability coefficient Pexact (cm/s) was calculated using the equation: […]
The Pexact ratio was calculated using the equation: […]
The efflux ratio was calculated using the equation: […]
Where dCr/dt is the cumulative concentration of compound in the receiver chamber as a function of time (μM/s); Vr is the solution volume in the receiver chamber (0.1 mL on the apical side, 0.3 mL on the basolateral side); A is the surface area for the transport, i.e. 0.11 cm2 for the area of the monolayer; CO is the initial concentration in the donor chamber (μM).

In a further data set the test system is Rat hepatocyte. As to the kind of experiment: Metabolic stability assay (rat hepatocyte Clint). In kind it is in vitro ADME. As to conditions: 1 μM compound, cryopreserved hepatocytes 1 million cells per mL. The method, then:
Viability of cryopreserved hepatocytes was determined using trypan blue and the cell conc. was adjusted to […] with buffer. 1 μM compound (in Acetonitrile; 0.01% DMSO) was incubated with 250 μL of hepatocytecells (1 million cells per mL) in a 96 deep well plate. Reaction was stopped at different time points (0, 0.5, 5, 15, 30, 45, 60, 80, 100 and 120 min) by addition of 3 volumes of chilled acetonitrile to 20 μL of reaction mixture and centrifuged at 4° C. for 15 min. 40 μL of supernatant was diluted to 200 μL with pure water and analyzed using LC-MS/MS.
In vitro hepatocyte clearance was estimated based on determination of elimination half-life (T1/2) of compounds disappearance from their initial concentrations. Peak area ratios of each compound (test or control) to IS was calculated. Drug elimination rate constant k (min−1), T1/2 (min), and in vitro intrinsic clearance CLint (μL/min/E6) was calculated according to the following equations: […]
Where Chep (cells×μL^−1) is the cell concentration in the incubation system.

The target of data set [1] is Full length human DNAPK protein (Homo sapiens, UniProt P78527). The data set is described as follows: DNA-PK enzymatic assay (TR-FRET). The data set is classed as biochemical. The conditions noted are these: 10 μM ATP, 1.6 μM peptide substrate. (In TR-FRET formats the signal depends on donor and acceptor labels being close together.)
Data set [2] can be described thus: Metabolic stability assay (human microsomal Clint). In kind it is in vitro ADME. As to conditions: human, pooled human liver microsomes, pH 7.4, 1 μM compound, 1 mg/mL microsomes, 1 mM NADPH, 37° C. The method, then: 1 μM compound was incubated with 1 mg/mL of microsomes (Pooled HLM with 20 mg/ml protein cone) at 37° C. in 250 μL of buffer (100 mM phosphate buffer, pH-7.4) containing 1 mM NADPH solution. 20 μL of incubation mix was quenched with 5 volumes chilled acetonitrile at different time points 0, 0.5, 5, 10, 15, 20 and 30 min in a fresh 96 well plate. The quench plate was centrifuged at 4000 rpm for 15 min. 40 μL of supernatant was diluted to 200 μL with pure water and analyzed using LC-MS/MS.
In vitro intrinsic clearance of the drugs in the microsome CLint (μl/min/mg) was calculated in the similar manner as the CLint in the hepatocyte.
(Liver microsomes are vesicles of endoplasmic reticulum, rich in cytochrome P450 enzymes.)

For the compound `Cc1cc2ncnn2cc1Nc1ncc2c(C)nn(CCCOC(F)(F)F)c2n1` [Example 66, 3-methyl-N-(7-methyl-[1,2,4]triazolo[1,5-a]pyridin-6-yl)-1-(3-(trifluoromethoxy)propyl)-1H-pyrazolo[3,4-d]pyrimidin-6-amine], the efflux ratio at 120 min, 5 μM in the data set with MDR1, BCRP was 1.9. Further, the “Rat hepatocyte CLint (μl/min/10^−6 cells)” value (“Rat hepatocyte CLint” below) in the data set on Rat hepatocyte turned out to be 15.3 μl/min/10^−6 cells. The IC50 in data set [1] amounted to 2 nM. The compound further showed a microsomal CLint at 1 μM in data set [2] of 120 µL/min/mg.
In the same order, the values of `Cc1cc2ncnn2cc1Nc1ncc2c(C)nn(C3CCOC(C)C3)c2n1` (single isomer, unassigned) [Example 35, 3-methyl-N-(7-methyl-[1,2,4]triazolo[1,5-a]pyridin-6-yl)-1-(2-methyltetrahydro-2H-pyran-4-yl)-1H-pyrazolo[3,4-d]pyrimidin-6-amine] are 1.7, 21.7 μl/min/10^−6 cells, 2.8 nM and 55.4 µL/min/mg.
In the same order, the values of `Cc1cc2ncnn2cc1Nc1ncc2c(C)nn(C3CCOC3)c2n1` (single isomer, unassigned) [Example 48, 3-methyl-N-(7-methyl-[1,2,4]triazolo[1,5-a]pyridin-6-yl)-1-(tetrahydrofuran-3-yl)-1H-pyrazolo[3,4-d]pyrimidin-6-amine] are 3.6, below 1 μl/min/10^−6 cells, 1.8 nM and 11.1 µL/min/mg.
In the same order, the values of `Cc1cc2nccn2cc1Nc1ncc2c(C)nn(C(C)C)c2n1` [Example 60, 1-isopropyl-3-methyl-N-(7-methylimidazo[1,2-a]pyridin-6-yl)-1H-pyrazolo[3,4-d]pyrimidin-6-amine] are 0.7, 22.7 μl/min/10^−6 cells, 13.5 nM and 20.4 µL/min/mg.
Consider `CO[C@H]1CC[C@H](n2nc(C)c3cnc(Nc4cn5ccnc5cc4C)nc32)CC1` [Example 26, 1-((1r,4r)-4-methoxycyclohexyl)-3-methyl-N-(7-methylimidazo[1,2-a]pyridin-6-yl)-1H-pyrazolo[3,4-d]pyrimidin-6-amine], for which the efflux ratio at 120 min, 5 μM in the data set on MDR1, BCRP was determined as 4.2. Further, the “Rat hepatocyte CLint” value with Rat hepatocyte amounted to 13.6 μl/min/10^−6 cells. In data set [1], this compound yielded an IC50 of 3 nM. In addition, in data set [2], the microsomal CLint at 1 μM amounted to 134 µL/min/mg.
On to `Cc1cc2ncnn2cc1Nc1ncc2c(C)nn(CC3CCCO3)c2n1` (single isomer, unassigned) [Example 50, 3-methyl-N-(7-methyl-[1,2,4]triazolo[1,5-a]pyridin-6-yl)-1-((tetrahydrofuran-2-yl)methyl)-1H-pyrazolo[3,4-d]pyrimidin-6-amine], for which the efflux ratio at 120 min, 5 μM in the data set with MDR1, BCRP was determined as 2.7. Further, in the data set on Rat hepatocyte, the “Rat hepatocyte CLint” value turned out to be 2.1 μl/min/10^−6 cells. It took 7 nM to reach half-maximal inhibition in data set [1] (IC50). The compound also displayed an intrinsic metabolic clearance (microsomal CLint) at 1 μM in data set [2] of 12.2 µL/min/mg.
For `Cc1cc2ncnn2cc1Nc1ncc2c(n1)c(C1CCOCC1)cn2C` [Example 3, 7-methyl-N-(5-methyl-7-(tetrahydro-2H-pyran-4-yl)-5H-pyrrolo[3,2-d]pyrimidin-2-yl)-[1,2,4]triazolo[1,5-a]pyridin-6-amine] the same measures were 3.1, 9.8 μl/min/10^−6 cells, 10.2 nM and 39.7 µL/min/mg.
For `Cc1cc2ncnn2cc1Nc1ncc2c(C)nn([C@H]3CC[C@H](O)CC3)c2n1` [Example 31, (1r,4r)-4-(3-methyl-6-((7-methyl-[1,2,4]triazolo[1,5-a]pyridin-6-yl)amino)-1H-pyrazolo[3,4-d]pyrimidin-1-yl)cyclohexan-1-ol] the same measures were 31.2, 12.4 μl/min/10^−6 cells, 1.8 nM and 6.6 µL/min/mg.
In the same order, the values of `COc1ccc(Cn2nc(C)c3cnc(Nc4cn5ncnc5cc4C)nc32)cc1` [Example 18, 1-(4-methoxybenzyl)-3-methyl-N-(7-methyl-[1,2,4]triazolo[1,5-a]pyridin-6-yl)-1H-pyrazolo[3,4-d]pyrimidin-6-amine] are 1.1, 31.7 μl/min/10^−6 cells, 2.6 nM and 153 µL/min/mg.
In the case of `[2H]C([2H])([2H])n1nc(C2CCOCC2)c2nc(Nc3cn4ncnc4cc3C)ncc21` [Example 10, 1-(methyl-d3)-N-(7-methyl-[1,2,4]triazolo[1,5-a]pyridin-6-yl)-3-(tetrahydro-2H-pyran-4-yl)-1H-pyrazolo[4,3-d]pyrimidin-5-amine], in the data set on MDR1, BCRP, the efflux ratio at 120 min, 5 μM was 7.2. Also, the “Rat hepatocyte CLint” value with Rat hepatocyte came to 6.8 μl/min/10^−6 cells. The same compound showed an IC50 in data set [1] of 1.7 nM. Also, the microsomal CLint at 1 μM in data set [2] turned out to be 17.2 µL/min/mg.
For `Cc1cc2ncnn2cc1Nc1ncc2c(n1)c(C1CCCCC1)nn2C` [Example 5, 3-cyclohexyl-1-methyl-N-(7-methyl-[1,2,4]triazolo[1,5-a]pyridin-6-yl)-1H-pyrazolo[4,3-d]pyrimidin-5-amine], the efflux ratio at 120 min, 5 μM in the data set on MDR1, BCRP worked out at 0.8. For the same compound, the “Rat hepatocyte CLint” value in the data set on Rat hepatocyte is reported as 22.8 μl/min/10^−6 cells. The same compound returned an IC50 in data set [1] of 0.4 nM. In addition, the microsomal CLint at 1 μM in data set [2] is 135 µL/min/mg.
For `Cc1cc2ncnn2cc1Nc1ncc2c(C)nn([C@H]3C[C@H](C)C3)c2n1` [Example 39, 3-methyl-N-(7-methyl-[1,2,4]triazolo[1,5-a]pyridin-6-yl)-1-((1r,3r)-3-methylcyclobutyl)-1H-pyrazolo[3,4-d]pyrimidin-6-amine] the same measures were 0.9, 153.3 μl/min/10^−6 cells, 2.1 nM and 151 µL/min/mg.
For `COc1cc(C)c(Nc2ncc3c(C)nn(C4CCOCC4)c3n2)cn1` [Example 89, N-(6-methoxy-4-methylpyridin-3-yl)-3-methyl-1-(tetrahydro-2H-pyran-4-yl)-1H-pyrazolo[3,4-d]pyrimidin-6-amine] the same measures were 0.8, 9.6 μl/min/10^−6 cells, 6.2 nM and 10.1 µL/min/mg.
Consider `COC(C)Cn1nc(C)c2cnc(Nc3cn4ncnc4cc3C)nc21` (racemic) [Example 69, 1-(2-methoxypropyl)-3-methyl-N-(7-methyl-[1,2,4]triazolo[1,5-a]pyridin-6-yl)-1H-pyrazolo[3,4-d]pyrimidin-6-amine], for which the efflux ratio at 120 min, 5 μM in the data set with MDR1, BCRP worked out at 3. Besides, the “Rat hepatocyte CLint” value in the data set with Rat hepatocyte is given as 6.3 μl/min/10^−6 cells. In addition, the midpoint of inhibition in data set [1], the IC50, lay at 8.8 nM. For the same compound, in data set [2], the intrinsic clearance (microsomal CLint) at 1 μM was determined as 13.6 µL/min/mg.
Regarding `CO[C@H]1CC[C@@H](n2nc(C)c3cnc(Nc4cn5ncnc5cc4C)nc32)CC1` [Example 25, 1-((1s,4s)-4-methoxycyclohexyl)-3-methyl-N-(7-methyl-[1,2,4]triazolo[1,5-a]pyridin-6-yl)-1H-pyrazolo[3,4-d]pyrimidin-6-amine], in the data set on MDR1, BCRP, the efflux ratio at 120 min, 5 μM was 1.3. Besides, the “Rat hepatocyte CLint” value in the data set with Rat hepatocyte is reported as 17.7 μl/min/10^−6 cells. Also, in data set [1], the 50% inhibitory concentration (IC50) was determined as 1.8 nM. Also, the microsomal CLint at 1 μM in data set [2] turned out to be 209 µL/min/mg.
As to `Cc1nn(C2CCOCC2)c2nc(Nc3cn4ncnc4cc3Cl)ncc12` [Example 16, N-(7-chloro-[1,2,4]triazolo[1,5-a]pyridin-6-yl)-3-methyl-1-(tetrahydro-2H-pyran-4-yl)-1H-pyrazolo[3,4-d]pyrimidin-6-amine], the efflux ratio at 120 min, 5 μM with MDR1, BCRP was determined as 0.8. Further, in the data set with Rat hepatocyte, the “Rat hepatocyte CLint” value was 11.8 μl/min/10^−6 cells. Further, the half-inhibitory concentration (IC50) in data set [1] turned out to be 8.4 nM. In addition, the microsomal CLint at 1 μM in data set [2] worked out at 26.4 µL/min/mg.

The values are drawn from patent publication US12630565B2, “DNA-dependent protein kinase inhibitor” (DIZAL (JIANGSU) PHARMACEUTICAL CO., LTD., priority 2019, dated 2026).
